# Measurements reported in PubChem BioAssay (NCI).
#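 Five compound concentrations were applied to cells in 96-well plates for 48 hours; endpoints were derived by simple linear interpolation of the resulting dose-response curve. TGI is the concentration that stops growth completely.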 Calls of active or inactive are those of the source. No stated cut-off is given here; in the data, active means GI50 below about 0.43 µM; inactive means the rest.
# Experiments:
# Test in all cases: growth of human tumour cells (NCI), 48 h
# SK-MEL-5 melanoma = system: SK-MEL-5 melanoma
# SNB-19 CNS = system: SNB-19 CNS
# HCC-2998 colon = system: HCC-2998 colon
# M14 melanoma = system: M14 melanoma
# K-562 leukemia = system: K-562 leukemia
# CCRF-CEM leukemia = system: CCRF-CEM leukemia
# MDA-N = system: MDA-N
# MOLT-4 leukemia = system: MOLT-4 leukemia
# NCI-H226 lung = system: NCI-H226 lung
# MDA-MB-231 breast = system: MDA-MB-231 breast
# T-47D breast = system: T-47D breast
# IGROV1 ovarian = system: IGROV1 ovarian
# SK-MEL-28 melanoma = system: SK-MEL-28 melanoma
# NCI-H23 lung = system: NCI-H23 lung
# UACC-62 melanoma = system: UACC-62 melanoma
# HS 578T breast = system: HS 578T breast
# OVCAR-8 ovarian = system: OVCAR-8 ovarian
# COLO 205 colon = system: COLO 205 colon
# CAKI-1 renal = system: CAKI-1 renal
# OVCAR-4 ovarian = system: OVCAR-4 ovarian
# BT-549 breast = system: BT-549 breast
# EKVX NSCLC = system: EKVX NSCLC
# U251 CNS = system: U251 CNS
# ACHN renal = system: ACHN renal
# RPMI-8226 leukemia = system: RPMI-8226 leukemia
# KM12 colon = system: KM12 colon
# NCI/ADR-RES ovarian = system: NCI/ADR-RES ovarian
# HT29 colon = system: HT29 colon
# UACC-257 melanoma = system: UACC-257 melanoma
# SNB-75 CNS = system: SNB-75 CNS
# NCI-H460 lung = system: NCI-H460 lung
# SF-295 CNS = system: SF-295 CNS
# NCI-H522 lung = system: NCI-H522 lung
# MALME-3M melanoma = system: MALME-3M melanoma
# LOX IMVI melanoma = system: LOX IMVI melanoma
# PC-3 prostate = system: PC-3 prostate
# HCT-15 colon = system: HCT-15 colon
# MDA-MB-435 = system: MDA-MB-435
# 786-0 renal = system: 786-0 renal
# HL-60(TB) leukemia = system: HL-60(TB) leukemia
# HOP-62 NSCLC = system: HOP-62 NSCLC
# TK-10 renal = system: TK-10 renal
# OVCAR-5 ovarian = system: OVCAR-5 ovarian
# SN12C renal = system: SN12C renal
# SW-620 colon = system: SW-620 colon
# SK-OV-3 ovarian = system: SK-OV-3 ovarian
# MCF7 breast = system: MCF7 breast
# SK-MEL-2 melanoma = system: SK-MEL-2 melanoma
# HCT-116 colon = system: HCT-116 colon
# OVCAR-3 ovarian = system: OVCAR-3 ovarian
# A498 renal = system: A498 renal
# UO-31 renal = system: UO-31 renal
# A549 NSCLC = system: A549 NSCLC
# RXF 393 renal = system: RXF 393 renal
# DU-145 prostate = system: DU-145 prostate
# SF-268 CNS = system: SF-268 CNS
# SF-539 CNS = system: SF-539 CNS
# HOP-92 NSCLC = system: HOP-92 NSCLC
# SR leukemia = system: SR leukemia
# KM20L2 colon = system: KM20L2 colon
# DLD-1 colon = system: DLD-1 colon
# SNB-78 CNS = system: SNB-78 CNS
smiles,measurement,setting,value
COc1cc2c(cc1OCCCC(=O)Nc1cc(C(=O)Nc3cc(C(=O)Nc4cc(C(=O)NCCCN(C)C)n(C)n4)n(C)c3)n(C)c1)N=CC1CCCN1C2=O (configuration not stated),TGI,SK-MEL-5 melanoma,42.6 µM
same,TGI,SNB-19 CNS,49.7 µM
same,TGI,HCC-2998 colon,76.5 µM
same,TGI,M14 melanoma,72.2 µM
same,TGI,K-562 leukemia,39.8 µM
same,TGI,CCRF-CEM leukemia,> 100 µM
same,TGI,MDA-N,41.4 µM
same,TGI,MOLT-4 leukemia,32.4 µM
same,TGI,NCI-H226 lung,51.3 µM
same,TGI,MDA-MB-231 breast,> 100 µM
same,TGI,T-47D breast,> 100 µM
same,TGI,IGROV1 ovarian,49.1 µM
same,TGI,SK-MEL-28 melanoma,33.9 µM
same,TGI,NCI-H23 lung,78.5 µM
same,TGI,UACC-62 melanoma,39.9 µM
same,TGI,HS 578T breast,48 µM
same,TGI,OVCAR-8 ovarian,> 100 µM
same,TGI,COLO 205 colon,> 100 µM
same,TGI,CAKI-1 renal,78.1 µM
same,TGI,OVCAR-4 ovarian,38.6 µM
same,TGI,BT-549 breast,44.7 µM
same,TGI,EKVX NSCLC,> 100 µM
same,TGI,U251 CNS,59.8 µM
same,TGI,ACHN renal,40 µM
same,TGI,RPMI-8226 leukemia,82.8 µM
same,TGI,KM12 colon,64.1 µM
same,TGI,NCI/ADR-RES ovarian,> 100 µM
same,TGI,HT29 colon,44.5 µM
same,TGI,UACC-257 melanoma,44 µM
same,TGI,SNB-75 CNS,44.7 µM
same,TGI,NCI-H460 lung,> 100 µM
same,TGI,SF-295 CNS,> 100 µM
same,TGI,NCI-H522 lung,4.77 µM
same,TGI,MALME-3M melanoma,36.6 µM
same,TGI,LOX IMVI melanoma,55.5 µM
same,TGI,PC-3 prostate,48.9 µM
same,TGI,HCT-15 colon,> 100 µM
same,TGI,MDA-MB-435,64.5 µM
same,TGI,786-0 renal,> 100 µM
same,TGI,HL-60(TB) leukemia,16.3 µM
same,TGI,HOP-62 NSCLC,> 100 µM
same,TGI,TK-10 renal,39.4 µM
same,TGI,OVCAR-5 ovarian,> 100 µM
same,TGI,SN12C renal,51.3 µM
same,TGI,SW-620 colon,48.6 µM
same,TGI,SK-OV-3 ovarian,> 100 µM
same,TGI,MCF7 breast,58.7 µM
same,TGI,SK-MEL-2 melanoma,49.9 µM
same,TGI,HCT-116 colon,> 100 µM
same,TGI,OVCAR-3 ovarian,> 100 µM
same,TGI,A498 renal,57.7 µM
same,TGI,UO-31 renal,53 µM
same,TGI,A549 NSCLC,> 100 µM
same,TGI,RXF 393 renal,42.3 µM
same,TGI,DU-145 prostate,> 100 µM
same,TGI,SF-268 CNS,63.1 µM
same,TGI,SF-539 CNS,48.5 µM
same,TGI,HOP-92 NSCLC,51.1 µM
same,TGI,SR leukemia,25.4 µM
OCCNCN(CNCCO)c1nc(N(CNCCO)CNCCO)nc(N(CNCCO)CNCCO)n1,outcome,SNB-19 CNS,inactive
same,TGI,K-562 leukemia,0.15 µM
same,TGI,CCRF-CEM leukemia,0.0602 µM
same,TGI,MOLT-4 leukemia,0.205 µM
same,outcome,MOLT-4 leukemia,inactive
same,outcome,NCI-H226 lung,inactive
same,outcome,MDA-MB-231 breast,inactive
same,outcome,T-47D breast,inactive
same,outcome,IGROV1 ovarian,inactive
same,outcome,SK-MEL-28 melanoma,inactive
same,outcome,NCI-H23 lung,inactive
same,TGI,KM20L2 colon,0.322 µM
same,outcome,HS 578T breast,inactive
same,outcome,OVCAR-8 ovarian,inactive
same,TGI,COLO 205 colon,0.0877 µM
same,outcome,CAKI-1 renal,inactive
same,outcome,EKVX NSCLC,inactive
same,outcome,U251 CNS,inactive
same,outcome,ACHN renal,inactive
same,TGI,KM12 colon,0.55 µM
same,outcome,NCI/ADR-RES ovarian,inactive
same,outcome,HT29 colon,inactive
same,outcome,UACC-257 melanoma,inactive
same,TGI,NCI-H460 lung,0.354 µM
same,outcome,NCI-H460 lung,inactive
same,TGI,SF-295 CNS,0.147 µM
same,outcome,SF-295 CNS,inactive
same,outcome,PC-3 prostate,inactive
same,outcome,MDA-MB-435,inactive
same,outcome,OVCAR-5 ovarian,inactive
same,TGI,DLD-1 colon,0.405 µM
same,outcome,SN12C renal,inactive
same,outcome,SW-620 colon,inactive
same,outcome,MCF7 breast,inactive
same,outcome,OVCAR-3 ovarian,inactive
same,TGI,UO-31 renal,0.25 µM
same,TGI,A549 NSCLC,0.257 µM
same,outcome,A549 NSCLC,inactive
same,outcome,DU-145 prostate,inactive
same,TGI,SNB-78 CNS,0.203 µM
same,outcome,SF-268 CNS,inactive
same,outcome,SF-539 CNS,inactive
same,outcome,HOP-92 NSCLC,inactive
